Entries after “also recorded” stand apart in the source; their conditions may differ. Where two headings read alike, the source gives them in different places.
Columns and labels:
[1] = system: lymphoblasts derived from HD patients and normal controls; assay: ATP levels in oxidant-treated normal and HD lymphoblasts; assay type: cell-based, human; settings: for rescue of loss of ATP: HD and wild type lymphoblasts, oxidant-treated; for EC50: Homo sapiens, read-out: oxidant concentration for 50% loss of ATP
Method: (§1) FIGS. 3A-3F. FIG. 3A is a bar graph showing the effect of the PARP-1 inhibitor ANI on ATP levels in one normal (white) and two mutant HD (black) lymphoid cell lines treated with the oxidant (Oxd.) hydrogen peroxide. Lymphoblasts treated (T) with 200 μM oxidant were supplemented with mock inhibitor (DMSO) or with 5 μM PARP-1 inhibitor ANI. FIG. 3B is a bar graph showing the effect of the novel PARP-1 inhibitor K245 on ATP levels in oxidant (Oxd.) treated normal (white) and mutant HD (black) lymphoid cell lines. Hydrogen peroxide was the oxidant. Lymphoblasts treated (T) with 200 μM oxidant were supplemented with mock inhibitor (DMSO) or with 1, 5 or 10 μM PARP-1 inhibitor K245. FIG. 3C is a bar graph showing the effects of various compounds on relative ATP levels in wildtype (white) and mutant HD (black) striatal cells treated with 400 μM hydrogen peroxide. Basal ATP levels in cells untreated with oxidant were 100%. Oxidant-treated cells were supplemented with mock (DMSO) or PARP-1 inhibitors ANI and K245 at concentrations 0.1 μM, 1 μM, and 5 μM; and 1 μM, 5 μM, and 10 μM, respectively. […] FIG. 3D is a bar graph showing the effects of PARP-1 inhibitors ANI and K245 on basal ATP levels in normal (white) and mutant HD (black) lymphoblasts. Cells were supplemented with 5 μM ANI and 10 μM K245. Basal ATP levels in cells supplemented with mock (DMSO) were 100%. Cells were not treated with oxidant. FIG. 3E is a bar graph showing the effects of PARP-1 inhibitors on ATP levels in untreated striatal cells and in striatal cells treated with the mitochondrial blocker 3-NP. Wildtype cells are indicated by white bars and mutant HD cells are indicated by black bars. Untreated wildtype and mutant HD cells were supplemented with 5 μM ANI or 10 μM K245. Basal ATP levels in cells supplemented with mock (DMSO) were 100%. Cells treated with 5 μM 3-NP were supplemented with mock (DMSO), 1 or 5 μM ANI, or 1 μM, 5 μM, or 10 μM K245. FIG. 3F is a bar graph showing PARP-1 activity levels in untreated wildtype (7Q) and mutant HD (111Q) striatal cells, and in normal (30Q) and mutant HD (63Q) lymphoblasts.

[2] = system: PC12 cell-line expressing fragments of mutant Htt protein; assay: oxidant (hydrogen peroxide)-mediated ATP loss and cell death in PC12 cells expressing mutant Htt fragments; assay type: cell-based
Method: To investigate the impact of oxidative stress on HD cells we measured ATP levels in lymphoblasts derived from HD patients and normal controls. ATP levels were measured using a commercially available-luciferase substrate. The luciferase enzyme uses ATP as a cofactor to produce one photon of light per substrate molecule (e.g., luciferin). The detectable output is luminescence. There is a linear relationship between the amount of signal output and the amount of ATP present in the sample. Thus, the amount of ATP present in a sample can be directly correlated with the measured output.
To investigate the basis for the hypersensitivity of mutant cells to oxidative stress, we employed a chemical biological approach and screened for small molecules capable of preventing an unsustainable loss of ATP in HD mutant cells. We developed an assay to measure oxidative stress-dependent ATP loss and subsequent cell-death. […] In addition, amino groups of each of CGI and K245-14 were predicted to form hydrogen bonds with Ser243 and Gly202 of PARP1.
To confirm that inhibition of PARP-1 activity could protect cells from ATP depletion, we tested two known enzyme inhibitors in PC12 cells challenged with oxidative stress. The PC12 cell line expressed fragments of mutant Htt protein as described above. […] Maintenance of ATP levels rescued by the PARP-1 inhibitors was dependent on the severity of cellular oxidation (FIG. 2A).

[3] = system: striatal cells derived from Huntingtin double knock-in mutant and wildtype transgenic mice; assay: ATP levels in oxidant-treated wildtype and mutant HD striatal cells; assay type: cell-based, mouse; settings: for rescue of loss of ATP: mutant and wild type striatal cells, oxidant-treated; for EC50: read-out: oxidant concentration for 50% loss of ATP; for loss of ATP from basal ATP levels: 500 μM oxidant
Method: as §1

[4] = target: recombinant PARP-1 (Homo sapiens, UniProt P09874); assay: in vitro PARP-1 enzyme inhibition assay; assay type: biochemical
recombinant PARP-1, sequence (P09874 whole entry): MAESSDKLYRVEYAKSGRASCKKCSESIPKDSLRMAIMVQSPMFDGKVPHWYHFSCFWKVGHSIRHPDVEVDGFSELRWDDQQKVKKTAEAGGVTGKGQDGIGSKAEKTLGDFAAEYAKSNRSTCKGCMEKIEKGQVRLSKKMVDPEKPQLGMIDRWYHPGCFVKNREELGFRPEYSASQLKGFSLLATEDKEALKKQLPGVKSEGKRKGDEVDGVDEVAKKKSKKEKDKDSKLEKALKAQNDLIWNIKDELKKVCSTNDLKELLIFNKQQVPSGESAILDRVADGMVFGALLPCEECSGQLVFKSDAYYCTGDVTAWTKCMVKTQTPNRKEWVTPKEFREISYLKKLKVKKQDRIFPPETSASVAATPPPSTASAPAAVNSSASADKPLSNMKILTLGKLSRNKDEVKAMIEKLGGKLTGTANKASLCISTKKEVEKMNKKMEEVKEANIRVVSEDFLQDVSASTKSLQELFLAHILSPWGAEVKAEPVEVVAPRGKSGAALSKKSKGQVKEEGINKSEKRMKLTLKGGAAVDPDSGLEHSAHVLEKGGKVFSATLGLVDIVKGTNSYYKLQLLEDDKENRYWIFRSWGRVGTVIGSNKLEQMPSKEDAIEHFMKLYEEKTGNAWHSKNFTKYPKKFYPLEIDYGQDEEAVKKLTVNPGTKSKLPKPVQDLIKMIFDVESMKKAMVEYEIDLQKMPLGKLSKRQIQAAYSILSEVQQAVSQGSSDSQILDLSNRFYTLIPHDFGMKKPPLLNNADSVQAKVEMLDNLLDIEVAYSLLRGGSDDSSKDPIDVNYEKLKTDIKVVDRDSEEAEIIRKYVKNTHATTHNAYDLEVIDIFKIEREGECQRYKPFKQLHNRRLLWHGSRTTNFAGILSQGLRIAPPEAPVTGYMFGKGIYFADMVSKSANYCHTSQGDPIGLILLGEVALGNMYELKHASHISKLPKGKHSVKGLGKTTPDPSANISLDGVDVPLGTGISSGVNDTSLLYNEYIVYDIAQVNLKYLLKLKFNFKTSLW
Method: FIGS. 2A-2F. FIG. 2A is a bar graph showing ATP levels in PC12 cells treated with the oxidant (Oxd.), hydrogen peroxide, in the absence (white) and in the presence (gray) of the PARP-1 inhibitor (ANI). FIG. 2B is a graph showing relative ATP levels in PC12 cells treated with hydrogen peroxide in the absence (solid line) and in the presence (dashed line) of 5 μM PARP-1 inhibitor ANI. FIG. 2C is a bar graph showing ATP levels in PC12 cells either untreated (U) or treated (T) with 200 μM oxidant and supplemented with the compounds indicated at the concentrations indicated. […] The IC50 of each inhibitor, determined by in vitro assay, is also shown. […] FIG. 2E is a bar graph showing the effect of different compounds on recombinant PARP-1 activity in vitro. PARP-1 enzymatic activities were determined in the absence (white) or presence (gray) of the testing compounds. […] FIG. 2F is a graph showing the calculated IC50 of inhibitor K245.
(See, e.g., Jagtap and Szabo, Nat Rev Drug Discov. 4:421-440, 2005; Ha and Snyder, Proc Natl Acad Sci USA. 96: 13978-13982, 1999; and Ying et al., Proc Natl Acad Sci USA 98:12227-12232, 2001). To test the effect of the compounds on PARP1 activity, an in vitro PARP-1 assay was used.
Identification of structural analogs. […] PARP-1 activity in the presence of decreasing concentrations of three different inhibitors is shown in the graph in FIG. 6.

[5] = system: α-synuclein toxicity; assay: Parkinson's Disease alpha-synuclein toxicity assay; assay type: cell-based
Source text: Alpha-synuclein toxicity assays can also be used to identify compounds that positively impact cell survival and/or function. […] As noted, Parkinson's Disease is among the indications for the present compositions.

[6] = text and figure legend, read-out: IC50 for PARP-1 inhibition in vitro
[7] = Table 3, in vitro enzyme inhibition, read-out: IC50

For `Nc1ccc2c3c(cccc13)C(=O)NC2=O` [4-ANI], the “rescue of loss of ATP” value [1] was “rescued loss of ATP”, the “rescue of oxidant-mediated ATP loss and cell death” value [2] was “protected high levels of cellular ATP” and the “rescue of loss of ATP” value [3] was “rescued loss of ATP”.

In the case of `Nc1ccc2c3c(cccc13)C(=O)N2` [CG1], the IC50 [4, 6] is reported as 2.5 µM and the “rescue of oxidant-mediated ATP loss and cell death” value [2] is reported as “rescued oxidant-mediated ATP loss and cell death”.

`CCN1C(=O)c2cccc3c(N)ccc1c23` [CG3, reference compound] was tested, and the PARP-1 inhibition ([4]; result in words) was “did not show any PARP-1 inhibition activity; also recorded: failed to inhibit PARP-1 activity” and the “rescue of oxidant-mediated ATP loss and cell death” value [2] was “did not protect cells from oxidative stress”.

With `CCN(CC)CCNC(=O)c1ccc2c(c1)NC(=O)c1ccccc1N2` [K245-14] the “rescue of loss of ATP” value [1] was “rescued loss of ATP”, the IC50 [4, 6] was 2 µM and the “rescue of oxidant-mediated ATP loss and cell death” value [2] was “rescued oxidant-mediated ATP loss and cell death”. For the same compound, the “protective effect in α-synuclein toxicity assay” value [5] was “small but reproducible protective effects” and the “rescue of loss of ATP” value [3] was “rescued loss of ATP”.

`COc1ccc(N2CCN(C(=O)c3ccc4c(c3)NC(=O)c3ccccc3N4)CC2)cc1` [K245-39A] showed an IC50 [4, 7] of 5.5 µM.

With `O=C1Nc2cc(C(=O)N3CCN(Cc4ccccc4)CC3)ccc2Nc2ccccc21` [K245-42] the IC50 [4, 7] was 2.2 µM.

Compound `O=C1Nc2cc(C(=O)N3CCCC3)ccc2Nc2ccccc21` [K245-80] has an IC50 [4, 7] of 3.5 µM.

`O=C1Nc2cc(C(=O)N3CCN(c4ccc(Cl)cc4)CC3)ccc2Nc2ccccc21` [K245-88] showed an IC50 [4, 7] of 0.15 µM.

`O=C1Nc2cc(C(=O)N3CCN(c4ccccc4F)CC3)ccc2Nc2ccccc21` [K245-89] gave an IC50 [4, 7] of 0.55 µM.

Work on `COC(CNC(=O)c1ccc2c(c1)NC(=O)c1ccccc1N2)OC` [K245-95] yielded an IC50 [4, 7] of 2 µM.

For `CCN(CCCNC(=O)c1ccc2c(c1)NC(=O)c1ccccc1N2)c1cccc(C)c1` [K245-99], the IC50 [4, 7] was 4 µM.

`OO` [hydrogen peroxide] showed an EC50 ([1]; mutant HD lymphoblasts) of 60 µM, an EC50 ([1]; normal lymphoblasts) of 120 µM and an EC50 ([3]; Mus musculus, mutant HD striatal cells) of 410 µM. The EC50 ([3]; Mus musculus, wildtype striatal cells) was 550 µM, the EC50 ([3]; mutant HD striatal cells) was 420 µM and the “loss of ATP from basal ATP levels” value ([3]; mutant striatal cells) was 80%. For the same compound, the “loss of ATP from basal ATP levels” value ([3]; wildtype striatal cells) was 20%.
